The values below come from ChEMBL document CHEMBL3045727, “Synthesis of some new thiazolopyrane and thiazolopyranopyrimidine derivatives bearing a sulfonamide moiety for evaluation as anticancer and radiosensitizing agents” (Med Chem Res, 2012).

In test [1] the test system is HepG2. In words: Cytotoxicity against Homo sapiens (human) HepG2 cells assessed as cell surviving fraction at 10 uM after 48 hr followed by gamma-radiation at dose level of 8 Gy by SRB assay. The class given is functional.
The subject of test [2] is HepG2. Kind of test: Cytotoxicity against Homo sapiens (human) HepG2 cells assessed as cell surviving fraction at 100 uM after 48 hr followed by gamma-radiation at dose level of 8 Gy by SRB assay. The class given is functional.
Test [3] has as its system HepG2. Kind of test: Cytotoxicity against Homo sapiens (human) HepG2 cells assessed as cell surviving fraction at 25 uM after 48 hr followed by gamma-radiation at dose level of 8 Gy by SRB assay. The format is functional.
Test [4] relates to HepG2. In words: Cytotoxicity against Homo sapiens (human) HepG2 cells after 48 hr by SRB assay. The format is functional, cell-based. The following applies: HepG2, 48 h.
Test [5] concerns HepG2. In words: Cytotoxicity against Homo sapiens (human) HepG2 cells assessed as cell surviving fraction at 50 uM after 48 hr followed by gamma-radiation at dose level of 8 Gy by SRB assay. The class given is functional.
The test system of test [6] is HepG2. In words: Cytotoxicity against Homo sapiens (human) HepG2 cells assessed as cell surviving fraction at 100 uM after 48 hr by SRB assay. The format is functional.
Test [7] concerns HepG2. In words: Cytotoxicity against Homo sapiens (human) HepG2 cells after 48 hr followed by gamma-radiation at dose level of 8 Gy by SRB assay. The format is functional, cell-based. The following applies: HepG2, 48 h.
Test [8] concerns HepG2. Kind of test: Cytotoxicity against Homo sapiens (human) HepG2 cells assessed as cell surviving fraction at 10 uM after 48 hr by SRB assay. The format is functional.
Test [9] relates to HepG2. Kind of test: Cytotoxicity against Homo sapiens (human) HepG2 cells assessed as cell surviving fraction at 50 uM after 48 hr by SRB assay. The class given is functional.
Test [10] has as its system HepG2. Kind of test: Cytotoxicity against Homo sapiens (human) HepG2 cells assessed as cell surviving fraction at 25 uM after 48 hr by SRB assay. The format is functional.

In the case of `NS(=O)(=O)c1ccc(NC2=NC(=O)CS2)cc1`, the Ratio amounted to 0.53 in the test on HepG2 [1]; 0.12 with HepG2 [2]; 0.48 with HepG2 [3]; 0.12 with HepG2 [5]; 0.231 in the test on HepG2 [6]; 0.848 in the test on HepG2 [8]. Besides, the Ratio in the test on HepG2 [9] turned out to be 0.168; in the test with HepG2 [10] it was 0.501. Besides, the IC50 was 43 µM in the test with HepG2 [4] and 30 µM in the test with HepG2 [7].

`N#CC1=C(N)Oc2nc(Nc3ccc(S(N)(=O)=O)cc3)sc2C1c1ccc([N+](=O)[O-])cc1` (stereo not drawn) returned an IC50 in the test on HepG2 [4] of 60 µM. The Ratio was determined as 0.312 in the test on HepG2 [6], 0.846 in the test with HepG2 [8], 0.376 in the test with HepG2 [9] and 0.767 with HepG2 [10].

In the case of `COc1ccc(C2C(C#N)=C(N)Oc3nc(Nc4ccc(S(N)(=O)=O)cc4)sc32)cc1OC` (stereo not drawn), the Ratio with HepG2 [6] came out at 0.672; in the test with HepG2 [8], 0.628; in the test with HepG2 [9] it was 0.64; in the test with HepG2 [10], 0.564.

On to `N#CC1=C(N)Oc2nc(Nc3ccc(S(N)(=O)=O)cc3)sc2C1c1ccccc1Cl` (stereo not drawn), for which the Ratio with HepG2 [6] came out at 0.655; in the test with HepG2 [8], 0.909; in the test on HepG2 [9] it was 0.582; in the test on HepG2 [10], 0.861.

`N#CC1=C(N)Oc2nc(Nc3ccc(S(N)(=O)=O)cc3)sc2C1c1cccc(Br)c1` (stereo not drawn) yielded an IC50 in the test on HepG2 [4] of 72 µM. Further, the Ratio in the test with HepG2 [6] was determined as 0.509; in the test with HepG2 [8], 0.846; in the test with HepG2 [9], 0.388; in the test with HepG2 [10], 0.564.

Compound `Nc1ncnc2c1C(c1ccc([N+](=O)[O-])cc1)c1sc(Nc3ccc(S(N)(=O)=O)cc3)nc1O2` (stereo not drawn) returned an IC50 with HepG2 [4] of 65 µM. Moreover, the Ratio in the test on HepG2 [6] is 0.489; in the test with HepG2 [8] it was 0.814; with HepG2 [9], 0.287; in the test with HepG2 [10], 0.605.

Turning to `NS(=O)(=O)c1ccc(Nc2nc3c(s2)C(c2ccc([N+](=O)[O-])cc2)c2c(nc[nH]c2=O)O3)cc1` (stereo not drawn), the Ratio is reported as 0.41 in the test on HepG2 [1]; 0.14 in the test on HepG2 [2]; 0.22 in the test on HepG2 [3]; 0.12 with HepG2 [5]; 0.015 in the test with HepG2 [6]; 0.625 with HepG2 [8]. Also, the values for the Ratio in the test with HepG2 [9] and in the test with HepG2 [10] were 0.168 and 0.498, respectively. The IC50 came out at 36 µM in the test with HepG2 [4] and 18 µM in the test with HepG2 [7].

Regarding `COc1ccc(C2c3sc(Nc4ccc(S(N)(=O)=O)cc4)nc3Oc3nc[nH]c(=O)c32)cc1OC` (stereo not drawn), the IC50 with HepG2 [4] was found to be 32 µM. Also, the Ratio in the test with HepG2 [6] is 0.127; in the test with HepG2 [8], 0.561; with HepG2 [9], 0.164; with HepG2 [10], 0.446.

For `Cc1nc2c(c(=O)[nH]1)C(c1ccc([N+](=O)[O-])cc1)c1sc(Nc3ccc(S(N)(=O)=O)cc3)nc1O2` (stereo not drawn), the IC50 with HepG2 [4] amounted to 45 µM. Besides, the Ratio was 0.213 with HepG2 [6], 0.764 in the test on HepG2 [8], 0.301 in the test on HepG2 [9] and 0.498 in the test with HepG2 [10].

As for `COc1ccc(C2c3sc(Nc4ccc(S(N)(=O)=O)cc4)nc3Oc3nc(C)[nH]c(=O)c32)cc1OC` (stereo not drawn), the Ratio in the test with HepG2 [1] came to 0.31; in the test on HepG2 [2], 0.11; with HepG2 [3], 0.12; in the test with HepG2 [5], 0.1; with HepG2 [6], 0.115; with HepG2 [8] it was 0.529. The Ratio stood at 0.118 in the test on HepG2 [9] and 0.477 in the test with HepG2 [10]. The figures for the IC50 in the test on HepG2 [4] and in the test on HepG2 [7] were 30 µM and 8 µM, respectively.

The compound `Nc1nc(=O)[nH]c2c1C(c1ccc([N+](=O)[O-])cc1)c1sc(Nc3ccc(S(N)(=O)=O)cc3)nc1O2` (stereo not drawn) registered an IC50 in the test with HepG2 [4] of 45 µM. Also, the Ratio with HepG2 [6] worked out at 0.262; in the test on HepG2 [8], 0.779; in the test on HepG2 [9], 0.244; with HepG2 [10] it was 0.487.

`Nc1nc(=S)[nH]c2c1C(c1ccc([N+](=O)[O-])cc1)c1sc(Nc3ccc(S(N)(=O)=O)cc3)nc1O2` (stereo not drawn) came in with an IC50 in the test with HepG2 [4] of 39 µM. For the same compound, the Ratio is on record as 0.246 in the test with HepG2 [6], 0.615 in the test with HepG2 [8], 0.284 in the test on HepG2 [9] and 0.432 with HepG2 [10].

In the case of `N#CC1=C(N2C(=O)CCC2=O)Oc2nc(Nc3ccc(S(N)(=O)=O)cc3)sc2C1c1ccc([N+](=O)[O-])cc1` (stereo not drawn), in the test on HepG2 [4], the IC50 was 45 µM. Also, the Ratio in the test on HepG2 [6] is 0.231; in the test with HepG2 [8], 0.71; with HepG2 [9], 0.342; in the test with HepG2 [10], 0.474.

As for `N#CC1=C(NC(=O)CCC(=O)O)Oc2nc(Nc3ccc(S(N)(=O)=O)cc3)sc2C1c1ccc([N+](=O)[O-])cc1` (stereo not drawn), the Ratio with HepG2 [1] stood at 0.36; in the test on HepG2 [2] it was 0.13; in the test with HepG2 [3], 0.23; with HepG2 [5], 0.11; in the test with HepG2 [6], 0.166; in the test on HepG2 [8], 0.626. Besides, the Ratio with HepG2 [9] is recorded as 0.127; in the test with HepG2 [10], 0.382. The IC50 amounted to 32 µM in the test with HepG2 [4] and 15 µM in the test with HepG2 [7].

`CC(=O)CC(=O)NC1=C(C#N)C(c2ccc([N+](=O)[O-])cc2)c2sc(Nc3ccc(S(N)(=O)=O)cc3)nc2O1` (stereo not drawn) yielded an IC50 with HepG2 [4] of 37 µM. For the same compound, the Ratio was 0.299 in the test with HepG2 [6], 0.546 in the test on HepG2 [8], 0.206 with HepG2 [9] and 0.456 with HepG2 [10].

As for `COc1ccc(C2c3sc(Nc4ccc(S(N)(=O)=O)cc4)nc3Oc3[nH]c(=S)n(-c4ccccc4)c(=N)c32)cc1OC` (stereo not drawn), the Ratio in the test on HepG2 [1] worked out at 0.4; with HepG2 [2], 0.13; in the test on HepG2 [3], 0.21; with HepG2 [5], 0.12; in the test on HepG2 [6], 0.137; with HepG2 [8], 0.593. Further, the values for the Ratio in the test on HepG2 [9] and with HepG2 [10] were 0.128 and 0.434, respectively. Besides, the IC50 with HepG2 [4] was 31 µM; in the test on HepG2 [7], 17 µM.

`COc1cccc2c1C(=O)c1c(O)c3c(c(O)c1C2=O)C[C@@](O)(C(=O)CO)C[C@@H]3O[C@H]1C[C@H](N)[C@H](O)[C@H](C)O1` [DOXORUBICIN]: half-maximal inhibition in the test with HepG2 [4] (IC50) required 32 µM. For the same compound, the Ratio in the test with HepG2 [6] is given as 0.125; in the test with HepG2 [8], 0.537; in the test on HepG2 [9], 0.122; in the test on HepG2 [10], 0.479.
